The assay addresses T1, AR transactivation domain (TAD) (Homo sapiens, UniProt P10275).
T1 construct: expressed in transfected cells
T1 sequence (P10275 1-559 limits assumed): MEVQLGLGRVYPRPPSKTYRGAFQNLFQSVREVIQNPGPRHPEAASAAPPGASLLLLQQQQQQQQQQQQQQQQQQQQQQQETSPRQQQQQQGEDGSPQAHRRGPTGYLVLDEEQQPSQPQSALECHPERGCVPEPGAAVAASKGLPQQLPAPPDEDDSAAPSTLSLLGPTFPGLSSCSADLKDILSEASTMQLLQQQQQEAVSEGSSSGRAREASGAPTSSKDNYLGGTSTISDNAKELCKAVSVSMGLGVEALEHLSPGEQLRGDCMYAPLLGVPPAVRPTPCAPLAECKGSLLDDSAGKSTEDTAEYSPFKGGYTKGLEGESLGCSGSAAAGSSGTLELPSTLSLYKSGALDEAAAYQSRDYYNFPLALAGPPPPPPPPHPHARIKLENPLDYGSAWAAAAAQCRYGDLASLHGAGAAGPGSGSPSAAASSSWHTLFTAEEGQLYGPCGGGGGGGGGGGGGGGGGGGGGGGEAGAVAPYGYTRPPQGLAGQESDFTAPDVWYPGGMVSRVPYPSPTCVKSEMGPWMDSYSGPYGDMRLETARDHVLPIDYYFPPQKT
Kind of assay: AR-TAD fused to GAL4 DNA-binding domain reporter assay. Format: cell-based. An excerpt:
The inhibitory activity of JN018 was further evaluated in experiments in which the AR transactivation domain (TAD) or the c-Jun or CREB TAD was fused to the heterologous GAL4 DNA-binding domain and thereby drive reporter gene expression governed by the GAL4 response element (FIG. 1).
On the technique in general: Reporter assays use an easily measured gene product as a stand-in for the process of interest.

This is an account of results in US11261152B2, “Inhibitors of the N-terminal domain of the androgen receptor” (The Regents of the University of California, priority 2017, dated 2022).

Counter-ions that a name gives are not always drawn.

Regarding `C=C(CN(C)Cc1ccccc1)C(=O)/C(=C/c1ccc(Cl)cc1)c1ccccc1` [JN018, (E)-4-((Benzyl(methyl)amino)methyl)-1-(4-chlorophenyl)-2-phenylpenta-1,4-dien-3-one hydrochloride], the AR-TAD entry (Table 3 grade HIGH/MED/LOW, grades not defined) is given as “HIGH”. Moreover, where the note is “result in words, versus c-Jun or CREB TAD fusions”, the “inhibition of the AR-GAL4-DBD fusion protein” value is given as “selectively inhibits”.
